The subject of data set [1] is male Wistar rats. The experiment in a line: Wake promotion (EEG/EMG sleep-wake, locomotor activity, body temperature). The data set is classed as in vivo, rat. To be noted: for rebound hypersomnolence: FIG. 3; for effect on body temperature: FIG. 4; for locomotor hyperactivity / stimulant activity: FIG. 5; for duration of wakefulness: administered 5 hours after lights on (CT-5), FIG. 2. The procedure:
Test compounds in various dose ranges or vehicle were administered to male Wistar rats 5 hours after lights on (CT-5). EEG, EMG, locomotor activity, drink- and food-related activity, and body temperature were concurrently monitored for 30 hr before and after treatment from rats living in separate isolated recording chambers. Sleep-wake discriminations were carried out using SCORE2004™, proprietary real-time hardware and software technology of Hypnion, Inc. (Lexington, Mass.). Comparisons were made between the reference compounds: d-amphetamine, rivastigmine, modafinil, and the following carbamoyl ester test compounds: […]

In data set [2] the target is AChE (Homo sapiens, UniProt P22303). The data set is classed as biochemical.
Data set [3] deals with total cholinesterase activity in the brain. As to the kind of experiment: Total cholinesterase activity in brain homogenate after i.p. injection. The data set is classed as in vivo, rat. To be noted: brain 3 hours after injection; for Relative ChE Activity: relative to saline treated rats. The procedure:
Animals were decapitated 3 hours after injection and the brains rapidly removed. The brain tissue was diced into small pieces, placed on ice and immediately homogenized with a Polytron PT1200 (Kinematic AG) in 10 ml ice cold Tris with 0.1% Triton-X and protease inhibitors. The protease inhibitors in the extraction buffer were Antipain (10 μM), Aprotinin (5 TIU/mg protein), Bestatin ([…]), Leupeptin (10 μM) and Pepstatin (1 μM). The final dilution of the homogenate in the final assay mixture was 120-fold.
Total cholinesterase activity was determined by a modification of the colorimetric method of Ellmann, et al. (Biochem. Pharmacol., 7:88-95 (1961)), as described above. Hydrolysis of acetylthiocholine was monitored indirectly by measurement of the formation of the conjugate between thiocholine and DTNB. Optical density at 405 nm was recorded during five (5) minutes employing a microplate spectrophotometer (Polarstar, BMG Labtech), and plotted against time. The initial rates were calculated from the slope of the linear portion of the graph.
Cholinesterase activity was normalized for protein content of the homogenate. Relative cholinesterase activity was calculated as the ratio of normalized cholinesterase activity in a rat treated with a control compound or a carbamoyl ester over normalized cholinesterase activity in saline treated rats.

Data set [4] deals with T1, human recombinant acetylcholinesterase (Homo sapiens, UniProt P22303).
T1 construct: purchased Sigma Chemical Co (St. Louis, Mo.) C1682
The experiment in a line: biochemical. The following applies: for IC50: 30 min preincubation, 25° C., read-out: Inhibition of AChE IC50; for inhibition at 10 µM: read-out: Inhibition of AChE (%) 10 μM. The protocol:
All reagents employed in this experiment were of analytical grade. Acetylthiocholine iodide and 5,5′-dithiobis-(2-nitro)benzoic acid (DTNB) and human recombinant acetylcholinesterase (C1682) were purchased from Sigma Chemical Co (St. Louis, Mo.).
The enzyme, compound or stigmine and buffer were preincubated for 30 minutes. At the end of the preincubation period, the substrate acetylthiocholine was added. The final assay mixture contained 10 mM Tris-buffer (pH 8), 0.3 mM Acetylthiocholine and 0.33 mM DTNB and 0.08 U/ml enzyme. At least five (5) different concentrations of the compound or stigmine were assayed per IC50 experiment.
Hydrolysis of acetylthiocholine was monitored indirectly by measurement of the formation of the conjugate between thiocholine and DTNB.

The target in data set [5] is BuChE (Homo sapiens, UniProt P06276). As to the kind of experiment: In vitro screening assay, BuChE inhibition. The data set is classed as biochemical. An excerpt: An in vitro screening assay with various conjugates was completed according to the methods described in Ellman G L et al., Biochem Pharmacol., 7:88-95 (1961) and in Nadarajah B, J. Anal. Toxicol., 16:192-193 (1992), both of which are herein incorporated by reference in their entireties. The assay method was completed according to the following: […]

The target in data set [6] is butylryl cholinesterase (Homo sapiens, UniProt P06276). As to the kind of experiment: Inhibition of butyrylcholinesterase. The data set is classed as biochemical. The following applies: read-out: Inhibition of BuChE (%) 10 μM. The protocol: The inhibition of butylryl cholinesterase was determined using methods known in the art e.g., Alcala Molel M. et al. (2003) Characterization of the anticholinesterase activity of two new tacrin-huperzine A hybrids. Neuropharmacology, 44 (6), 749-755.

The test system of data set [7] is male CD IGS (Sprague Dawley derived) rats. As to the kind of experiment: Induction of hypothermia after subcutaneous administration. The data set is classed as in vivo, rat. The following applies: for Induction of hypothermia MED (mg/kg s.c.): hypothermia = fall in temperature of >0.5° C.; for fall in body temperature: subcutaneous administration. From the text:
Cholinergic agonists cause hypothermia through a central mechanism of action (Freedman et al, 1989. Direct measurement of muscarinic agents in the central nervous system of mice using ex vivo binding. Eur. J. Pharmacol. 174:253-260). […] Since a premise of the present invention is that carbomyl esters would liberate the conjugated amine in the CNS only after inhibition of acetylcholinesterase, induction of hypothermia provides a useful correlation with the acetylcholinesterase inhibition detected in vitro and in vivo.
Hypothermia was defined as a fall in temperature of >0.5° C.
Hypothermia is a marker of CNS penetration for ACHE inhibitors.
(§1) If less soluble, the maximum injection volume was 5 mL/kg.
(§2) Baseline temperatures were taken just before injection.

Data set [8] concerns rats trained to discriminate methamphetamine from saline. As to the kind of experiment: Two-lever drug discrimination in methamphetamine trained rats. To be noted: 0.32-10 mg/kg p.o.
Data set [9] can be described thus: Dose range for cholinergic effects / max tolerated dose. The following applies: s.c., rats. The data set is classed as in vivo, rat. The protocol: as §1, §2

The source of these data is US20090048229A1, “Methods for promoting wakefulness” (priority 2007, published 2009).

Usually IC50 stands for the point on the concentration scale where inhibition reaches its midpoint. Usually inhibition stands for the change of the read-out against control, counted positive when it falls.

Read-outs that look alike come from different tables or passages of the source.

AChE, sequence (P22303 32-614): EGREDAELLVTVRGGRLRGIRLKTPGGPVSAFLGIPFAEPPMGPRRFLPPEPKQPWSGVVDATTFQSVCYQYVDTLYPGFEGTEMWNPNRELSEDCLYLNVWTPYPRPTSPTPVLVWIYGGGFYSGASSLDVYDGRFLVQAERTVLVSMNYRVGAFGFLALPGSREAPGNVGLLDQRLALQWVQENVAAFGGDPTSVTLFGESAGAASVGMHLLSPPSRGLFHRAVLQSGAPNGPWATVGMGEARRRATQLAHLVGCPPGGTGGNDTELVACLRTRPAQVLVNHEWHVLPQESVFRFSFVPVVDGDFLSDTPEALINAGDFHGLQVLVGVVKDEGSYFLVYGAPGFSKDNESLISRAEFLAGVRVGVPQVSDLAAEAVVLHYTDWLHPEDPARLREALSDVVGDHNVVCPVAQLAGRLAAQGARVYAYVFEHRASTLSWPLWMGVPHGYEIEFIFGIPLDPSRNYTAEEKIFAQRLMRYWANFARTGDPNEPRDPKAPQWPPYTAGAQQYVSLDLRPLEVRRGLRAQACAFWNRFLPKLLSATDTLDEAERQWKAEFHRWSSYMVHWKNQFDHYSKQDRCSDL
T1 sequence (P22303 32-614): as above
BuChE, sequence (P06276 29-602): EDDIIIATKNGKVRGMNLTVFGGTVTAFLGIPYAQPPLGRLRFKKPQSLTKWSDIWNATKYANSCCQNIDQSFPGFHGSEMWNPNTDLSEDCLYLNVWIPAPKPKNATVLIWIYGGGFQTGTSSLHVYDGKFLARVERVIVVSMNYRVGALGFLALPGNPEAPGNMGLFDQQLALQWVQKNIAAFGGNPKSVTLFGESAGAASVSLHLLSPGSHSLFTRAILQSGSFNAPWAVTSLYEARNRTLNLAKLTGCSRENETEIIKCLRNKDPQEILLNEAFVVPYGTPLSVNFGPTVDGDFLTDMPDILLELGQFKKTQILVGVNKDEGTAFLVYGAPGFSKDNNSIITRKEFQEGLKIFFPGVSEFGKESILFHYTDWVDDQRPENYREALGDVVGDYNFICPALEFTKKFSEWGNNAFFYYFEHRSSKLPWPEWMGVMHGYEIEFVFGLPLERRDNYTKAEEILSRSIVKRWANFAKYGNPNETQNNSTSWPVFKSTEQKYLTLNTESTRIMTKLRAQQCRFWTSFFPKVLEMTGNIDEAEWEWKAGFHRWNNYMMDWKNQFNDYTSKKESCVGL
butylryl cholinesterase, sequence (P06276 29-602): as above

As to `C[C@H](Cc1ccccc1)N(C)C(=O)Oc1cccc([C@H](C)N(C)C)c1` [Compound 7, S-riva-l-methamphetamine], in [1] (listed as Compound B), the rebound hypersomnolence entry is given as “rebound hypersomnolence was not observed”; the “effect on body temperature” value is given as “did not cause an increase in body temperature (hyperthermia), but rather caused an opposite reduction in body temperature”; the “locomotor hyperactivity / stimulant activity” value is recorded as “did not cause locomotor hyperactivity”; the duration of wakefulness entry is “unexpectedly long increase in wakefulness that surpassed that seen with the reference compounds tested”. In addition, in data set [1] (listed as compound B), the rebound hypersomnolence entry is recorded as “lack of hypersomnolence”, the “effect on body temperature” value was “absence of hypothermia” and the “locomotor hyperactivity / stimulant activity” value is listed as “lack of locomotor stimulant activity”. Moreover, in [1] (listed as B), the duration of wakefulness entry is listed as “dose-related increase in wakefulness”. In addition, in data set [2], the “AChEI (%) 1 μM” value stood at 32% and the “AChEI (%) 10 μM” value was 79%. In [3] (2 mg/kg i.p.), the ChE inhibition turned out to be 38% and the “Relative ChE Activity” value turned out to be 62%. Moreover, in data set [4], the IC50 was 3.2 µM and the inhibition at 10 µM turned out to be 79%. Further, the “BuChEI (%) 10 μM” value in data set [5] (10 μM) is listed as 17%. Further, the inhibition at 10 µM in [6] amounted to 17%. For the same compound, in data set [7] (s.c.), the “Induction of hypothermia MED (mg/kg s.c.)” value (shortened to “Induction of hypothermia MED”) is “≦1 mg/kg s.c”. The “fall in body temperature” value in [7] is recorded as “dose-related-related fall in body temperature”. Besides, the “stimulus generalization (selection of methamphetamine lever)” value in data set [8] is “did not select the methamphetamine lever”.
Consider `CCN(C)C(=O)Oc1cccc([C@H](C)N(C)C)c1` [Compound 1, S-rivastigmine, reference compound], for which, in [1], the rebound hypersomnolence result is on record as “rebound hypersomnolence” and the duration of wakefulness result is “increased wakefulness”. Also, in data set [5], the “BuChEI (%) 1 μM” value was found to be 45% and the “BuChEI (%) 10 μM” value came to 100%. Besides, in data set [9], the “Max Tolerated Dose” value is recorded as 10. Besides, the inhibition at 10 µM in data set [6] came out at 100%. Moreover, the “Hypothermia MED (mg/kg)” value in data set [7] (s.c., rats) is recorded as “≦0.1 mg/kg”. The “Induction of hypothermia MED” value in [7] (s.c.) is on record as “≦0.1 mg/kg s.c”. For the same compound, the “fall in body temperature” value in [7] is “dose-related-related fall in body temperature”.
Consider `C[C@H](Cc1ccccc1)NC(=O)Oc1cccc([C@H](C)N(C)C)c1` [Compound 9, S-riva-l-amphetamine], for which the duration of wakefulness result in [1] is reported as “dose-related increase in wakefulness”. Also, in data set [2], the “AChEI (%) 1 μM” value stood at 35% and the “AChEI (%) 10 μM” value is 79%. Further, in data set [3] (8 mg/kg i.p.), the ChE inhibition was 41% and the “Relative ChE Activity” value is reported as 59%. In data set [4], the IC50 was found to be 3.1 µM and the inhibition at 10 µM was found to be 79%. Also, in data set [5] (1 μM), the “BuChEI (%) 1 μM” value came to 27%. Also, the “BuChEI (%) 10 μM” value in data set [5] (10 μM) is 90%. In [6], the inhibition at 10 µM was determined as 90%. For the same compound, the “Induction of hypothermia MED” value in data set [7] (s.c.) worked out at 10 mg/kg s.c. In addition, the “fall in body temperature” value in [7] is reported as “dose-related-related fall in body temperature”.
